Several values for one entry are separate records, joined by “and”; a condition that tells them apart may be missing. Equal entries are not always repeated. Structures can show the parent of a compound that is named as a salt.
Columns and labels:
Bub1 = Bub1 (Homo sapiens (Human), UniProt O43683); assay: Bub1 kinase assay (TR-FRET, 10 μM ATP); assay type: biochemical; conditions: mean, read-out: Bub1 kinase assay IC50 [mol/l] (mean)
Excerpt: Bub1-inhibitory activities of compounds described in the present invention were quantified using a time-resolved fluorescence energy transfer (TR-FRET) kinase assay which measures phosphorylation of the synthetic peptide Biotin-Ahx-[…]—SEQ ID NO: 5 (C-terminus in amide form), purchased from e.g. Biosyntan (Berlin, Germany) by the (recombinant) catalytic domain of human Bub1 (amino acids 704-1085), expressed in Hi5 insect cells with an N-terminal His6-tag (SEQ ID NO: 9) and purified by affinity-(Ni-NTA) and size exclusion chromatography.
In a typical assay 11 different concentrations of each compound (0.1 nM, 0.33 nM, 1.1 nM, 3.8 nM, 13 nM, 44 nM, 0.15 μM, 0.51 μM, 1.7 μM, 5.9 μM and 20 μM) were tested in duplicate within the same microtiter plate. To this end, 100-fold concentrated compound solutions (in DMSO) were previously prepared by serial dilution (1:3.4) of 2 mM stocks in a clear low volume 384-well source microtiter plate (Greiner Bio-One, Frickenhausen, Germany), from which 50 nl of compounds were transferred into a black low volume test microtiter plate from the same supplier. […] The resulting mixture (5 μl final volume) was incubated at 22° C. during 60 min., and the reaction was stopped by the addition of 5 μl of an aqueous EDTA-solution (50 mM EDTA, in 100 mM HEPES pH 7.5 and 0.2% (w/v) bovine serum albumin) which also contained the TR-FRET detection reagents (0.2 μM streptavidin-XL665 [Cisbio Bioassays, Codolet, France] and 1 nM anti-phosho-Serine antibody [Merck Millipore, cat. #35-002] and 0.4 nM LANCE EU-W1024 labeled anti-mouse IgG antibody [Perkin-Elmer, product no. AD0077, alternatively a Terbium-cryptate-labeled anti-mouse IgG antibody from Cisbio Bioassays can be used]). The stopped reaction mixture was further incubated 1 h at 22° C. in order to allow the formation of complexes between peptides and detection reagents. Subsequently, the amount of product was evaluated by measurement of the resonance energy transfer from the Eu-chelate-antibody complex recognizing the Phosphoserine residue to the streptavidin-XL665 bound to the biotin moiety of the peptide. To this end, the fluorescence emissions at 620 nm and 665 nm after excitation at 330-350 nm were measured in a TR-FRET plate reader, e.g. a Rubystar or Pherastar (both from BMG Labtechnologies, Offenburg, Germany) or a Viewlux (Perkin-Elmer) and the ratio of the emissions (665 nm/[…]) was taken as indicator for the amount of phosphorylated substrate. The data were normalised using two sets of control wells for high-(=enzyme reaction without inhibitor=0%=Minimum inhibition) and low-(=all assay components without enzyme=100%=Maximum inhibition) Bub1 activity. IC50 values were calculated by fitting the normalized inhibition data to a 4-parameter logistic equation (Minimum, Maximum, IC50, Hill; Y=Max+(Min−Max)/(1+(X/IC50)Hill)).

Ba/F3-EGFR-WT cells = assay: Proliferation assay in BA/F3 (wild type) cells (Cell Titer-Glo); assay type: cell-based
Protocol: (§1) Cellular Data Description (WT, insSVD, Ins ASV)
(§2) Plates were incubated at 37° C. for 48 h. Retrovirus was harvested by filtering the media supernatant through a 0.45 μm filter.
(§3) Ba/F3 cells purchased from DSMZ were grown in RPMI+10% FBS+10 ng/mL IL-3 and infected with filtered retroviral supernatant at a 1:2 dilution. Polybrene was added to a concentration of 8 μg/mL, plates were spun for 90 min, and incubated overnight at 37° C. 2 μg/mL puromycin was added to the infected cells 24 h after infection and cells were continually grown in the presence of puromycin and 10 ng/mL IL-3. Following stably expressing Ba/F3 cell lines were generated: Ba/F3-EGFR-WT, Ba/F3-EGFR-insSVD.
(§4) The cells ectopically expressing WT EGFR were plated with 10 ng/mL Millipore Culture grade EGF. The cells ectopically expressing EGFR-insSVD were plated without EGF.
(§5) 100 nL of compound was added to each well using a 100 nL pin head, and plates were incubated at 37° C. for 48 h.
(§6) Cell viability was measured by adding 30 μL of Cell Titer-Glo Luminescent Cell Viability Reagent. Plates were sealed with Perkin Elmer Top-Seal, inverted several times to mix, and immediately centrifuged at 1000 rpm for 2 min. Plates were incubated in low light conditions for 8-10 min and luminescence was measured.

[1] = molecular target: EGFR ins SVD (insertion of SVD between D770 and N771) (Homo sapiens, UniProt P00533, INS767SVD); assay: Exon 20-Mutant-EGFR(D770_N771insSVD) kinase assay (TR-FRET); assay type: biochemical; conditions: Table 9; read-out: mutEGFR (D770_N771insSVD) kinase assay IC50
Sequence of EGFR ins SVD (insertion of SVD between D770 and N771) (P00533 with tags, fused parts or gaps INS767SVD limits assumed): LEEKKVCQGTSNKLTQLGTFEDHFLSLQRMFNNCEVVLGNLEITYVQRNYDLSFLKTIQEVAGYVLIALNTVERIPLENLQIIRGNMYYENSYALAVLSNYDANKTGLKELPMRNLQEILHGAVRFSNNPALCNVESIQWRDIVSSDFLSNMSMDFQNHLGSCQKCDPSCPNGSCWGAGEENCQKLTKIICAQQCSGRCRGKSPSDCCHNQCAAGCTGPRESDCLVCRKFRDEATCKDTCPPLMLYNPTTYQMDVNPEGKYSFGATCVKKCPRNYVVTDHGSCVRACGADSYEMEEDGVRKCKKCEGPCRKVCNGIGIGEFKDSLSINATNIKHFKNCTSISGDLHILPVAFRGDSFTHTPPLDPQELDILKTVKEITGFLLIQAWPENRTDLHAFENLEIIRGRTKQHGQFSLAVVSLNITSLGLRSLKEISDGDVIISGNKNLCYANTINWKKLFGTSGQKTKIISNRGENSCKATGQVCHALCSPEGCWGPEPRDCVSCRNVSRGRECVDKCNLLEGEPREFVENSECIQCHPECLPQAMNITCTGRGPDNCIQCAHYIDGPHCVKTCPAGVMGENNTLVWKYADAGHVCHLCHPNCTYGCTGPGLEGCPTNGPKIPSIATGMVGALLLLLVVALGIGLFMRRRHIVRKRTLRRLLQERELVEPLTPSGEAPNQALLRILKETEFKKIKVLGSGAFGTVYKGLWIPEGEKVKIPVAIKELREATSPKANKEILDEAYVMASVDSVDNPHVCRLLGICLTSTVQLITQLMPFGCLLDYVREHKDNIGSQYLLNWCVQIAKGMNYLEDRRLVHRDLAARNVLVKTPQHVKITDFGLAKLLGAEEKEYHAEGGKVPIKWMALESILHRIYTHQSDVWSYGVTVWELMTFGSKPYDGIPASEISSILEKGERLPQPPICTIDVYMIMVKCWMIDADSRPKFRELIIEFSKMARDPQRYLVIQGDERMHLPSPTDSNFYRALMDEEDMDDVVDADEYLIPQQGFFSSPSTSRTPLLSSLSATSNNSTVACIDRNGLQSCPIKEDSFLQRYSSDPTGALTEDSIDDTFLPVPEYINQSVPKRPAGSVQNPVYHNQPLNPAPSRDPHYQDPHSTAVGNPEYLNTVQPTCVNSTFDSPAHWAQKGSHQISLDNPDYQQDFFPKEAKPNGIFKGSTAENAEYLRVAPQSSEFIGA

Ba/F3-EGFR-insSVD cells = assay: Proliferation assay in BA/F3 (ins SVD) cells (Cell Titer-Glo); assay type: cell-based
Protocol: as §1, §2, §3, §4, §5, §6

[2] = Mus musculus, BaF3, 48 h, Table 10, plated with 10 ng/mL EGF
[3] = Mus musculus, BaF3, 48 h, Table 10, plated without EGF
[4] = Mus musculus, BaF3, Table 10, plated with 10 ng/mL EGF, 48 h
[5] = Mus musculus, BaF3, Table 10, plated without EGF, 48 h

Sequence of Bub1 (O43683 704-1085): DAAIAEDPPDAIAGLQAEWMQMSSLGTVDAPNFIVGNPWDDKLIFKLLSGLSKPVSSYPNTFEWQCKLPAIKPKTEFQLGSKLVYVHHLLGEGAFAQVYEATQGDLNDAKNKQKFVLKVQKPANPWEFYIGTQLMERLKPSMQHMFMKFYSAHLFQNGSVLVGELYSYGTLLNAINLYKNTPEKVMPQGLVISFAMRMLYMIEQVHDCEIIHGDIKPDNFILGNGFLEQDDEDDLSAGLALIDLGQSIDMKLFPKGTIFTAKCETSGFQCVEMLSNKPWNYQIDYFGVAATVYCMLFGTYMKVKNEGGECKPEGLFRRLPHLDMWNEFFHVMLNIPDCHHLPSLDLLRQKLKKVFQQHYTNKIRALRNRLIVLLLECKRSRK

IC50 (Bub1) [nM] | Compound | IC50 (Ba/F3-EGFR-WT cells; [2]) [nM] | IC50 [1] | IC50 (Ba/F3-EGFR-insSVD cells; [3]) [nM] | IC50 (Ba/F3-EGFR-WT cells; [4]) [nM] | IC50 (Ba/F3-EGFR-insSVD cells; [5]) [nM] | IC50 (Ba/F3-EGFR-WT cells; Table 10, plated with 10 ng/mL EGF, 48 h) [nM] | IC50 (Ba/F3-EGFR-insSVD cells; Table 10, plated without EGF, 48 h) [nM]
14.5 | COCCOc1cnccc1-c1[nH]c2c(c1Nc1ccccc1)C(=O)NCC2 [Example 1, 2-[3-(2-methoxyethoxy)pyridin-4-yl]-3-(phenylamino)-1,5,6,7-tetrahydro-4H-pyrrolo[3,2-c]pyridin-4-one] |  |  |  |  |  |  | 
 | Cc1c(Cl)cccc1Nc1c(-c2ccncc2OC[C@@H]2CCCN2C)[nH]c2c1C(=O)NCC2 [Example 77, 3-(3-chloro-2-methylanilino)-2-(3-{[(2S)-1-methylpyrrolidin-2-yl]methoxy}pyridin-4-yl)-1,5,6,7-tetrahydro-4H-pyrrolo[3,2-c]pyridin-4-one] | 1480 | 0.727 nM | 46.3 |  |  |  | 
 | COC(C)(C)COc1cnccc1-c1[nH]c2c(c1Nc1cccc(Cl)c1Br)C(=O)NCC2 [Example 78, 3-(2-bromo-3-chloroanilino)-2-[3-(2-methoxy-2-methylpropoxy)pyridin-4-yl]-1,5,6,7-tetrahydro-4H-pyrrolo[3,2-c]pyridin-4-one] | 583 | < 0.0725 nM and 0.0736 nM | 16 |  |  |  | 
 | O=C1NCCc2[nH]c(-c3ccncc3OCC3CCOC3)c(Nc3cccc(Cl)c3OC(F)F)c21 (stereo not shown) [Example 79, 3-[3-chloro-2-(difluoromethoxy)anilino]-2-{3-[(oxolan-3-yl)methoxy]pyridin-4-yl}-1,5,6,7-tetrahydro-4H-pyrrolo[3,2-c]pyridin-4-one] | 1810 | 0.242 nM | 118 |  |  |  | 
 | COc1c(Cl)cccc1Nc1c(-c2ccncc2OC[C@@H]2CCCN2)[nH]c2c1C(=O)NCC2 [Example 80, 3-(3-chloro-2-methoxyanilino)-2-(3-{[(2S)-pyrrolidin-2-yl]methoxy}pyridin-4-yl)-1,5,6,7-tetrahydro-4H-pyrrolo[3,2-c]pyridin-4-one] | 1460 | 0.503 nM | 206 |  |  |  | 
 | O=C1NCCc2[nH]c(-c3ccncc3OCCN3CCOCC3)c(Nc3cccc(Cl)c3OC(F)F)c21 [Example 81, 3-[3-chloro-2-(difluoromethoxy)anilino]-2-{3-[2-(morpholin-4-yl)ethoxy]pyridin-4-yl}-1,5,6,7-tetrahydro-4H-pyrrolo[3,2-c]pyridin-4-one] |  | 0.441 nM |  | 4190 | 405 |  | 
 | O=C1NCCc2[nH]c(-c3ccncc3OCC3CCOCC3)c(Nc3cccc(Cl)c3OC(F)F)c21 [Example 82, 3-[3-chloro-2-(difluoromethoxy)anilino)-2-{3-[(oxan-4-yl)-methoxy]pyridin-4-yl}-1,5,6,7-tetrahydro-4H-pyrrolo[3,2-c]pyridin-4-one] | 8610 | 0.399 nM | 909 |  |  |  | 
 | COC(C)(C)COc1cnccc1-c1[nH]c2c(c1Nc1cccc(F)c1OC(F)F)C(=O)NCC2 [Example 83, 3-[2-(difluoromethoxy)-3-fluoroanilino]-2-[3-(2-methoxy-2-methylpropoxy)pyridin-4-yl]-1,5,6,7-tetrahydro-4H-pyrrolo[3,2-c]pyridin-4-one-hydrogen chloride (1/1) Salt] |  | 0.167 nM |  |  |  | 2290 | 100
 | COc1c(F)cccc1Nc1c(-c2ccncc2OCCN2CCOCC2)[nH]c2c1C(=O)NCC2 [Example 84, 3-(3-fluoro-2-methoxyanilino)-2-{3-[2-(morpholin-4-yl)ethoxy]pyridin-4-yl}-1,5,6,7-tetrahydro-4H-pyrrolo[3,2-c]pyridin-4-one] |  | 0.223 nM |  | 2210 | 188 |  | 
 | COc1c(F)cccc1Nc1c(-c2ccncc2OCC2CCCO2)[nH]c2c1C(=O)NCC2 (stereo not shown) [Example 86, 3-(3-fluoro-2-methoxyanilino)-2-{3-[(oxolan-2-yl)methoxy]pyridin-4-yl}-1,5,6,7-tetrahydro-4H-pyrrolo[3,2-c]pyridin-4-one] | 377 | 0.122 nM | 12.8 |  |  |  | 
 | COc1c(Cl)cccc1Nc1c(-c2ccncc2OCCOC(C)(C)C)[nH]c2c1C(=O)NCC2 [Example 87, 2-[3-(2-tert-butoxyethoxy)pyridin-4-yl]-3-(3-chloro-2-methoxyanilino)-1,5,6,7-tetrahydro-4H-pyrrolo[3,2-c]pyridin-4-one] | 1060 | 0.204 nM | 34.4 |  |  |  | 
 | COc1c(F)cccc1Nc1c(-c2ccncc2OCC2CCCCN2C)[nH]c2c1C(=O)NCC2 (stereo not shown) [Example 90, 3-(3-fluoro-2-methoxyanilino)-2-(3-{[1-methylpiperidin-2-yl]methoxy}pyridin-4-yl)-1,5,6,7-tetrahydro-4H-pyrrolo[3,2-c]pyridin-4-one] | 2660 | 0.69 nM | 29 |  |  |  | 
 | COc1c(F)cccc1Nc1c(-c2ccncc2OCCOC(C)(C)C)[nH]c2c1C(=O)NCC2 [Example 91, 2-[3-(2-tert-butoxyethoxy)pyridin-4-yl]-3-(3-fluoro-2-methoxyanilino)-1,5,6,7-tetrahydro-4H-pyrrolo[3,2-c]pyridin-4-one] | 1100 | 0.135 nM | 35.7 |  |  |  | 
 | COc1c(F)cccc1Nc1c(-c2ccncc2OC[C@@H](C)OC)[nH]c2c1C(=O)NCC2 [Example 92, 3-(3-fluoro-2-methoxyanilino)-2-{3-[(2R)-2-methoxypropoxy]pyridin-4-yl}-1,5,6,7-tetrahydro-4H-pyrrolo[3,2-c]pyridin-4-one] | 309 | 0.118 nM | 10.4 |  |  |  | 
 | COc1c(F)cccc1Nc1c(-c2ccncc2OC(C)Cc2ccccc2)[nH]c2c1C(=O)NCC2 (stereo not shown) [Example 93, 3-(3-fluoro-2-methoxyanilino)-2-{3-[(1-phenylpropan-2-yl)oxy]pyridin-4-yl}-1,5,6,7-tetrahydro-4H-pyrrolo[3,2-c]pyridin-4-one] | 3680 | 0.277 nM | 468 |  |  |  | 
 | COC(C)(C)COc1cnccc1-c1[nH]c2c(c1Nc1cccc(F)c1C#N)C(=O)NCC2 [Example 94, 2-fluoro-6-({2-[3-(2-methoxy-2-methylpropoxy)pyridin-4-yl]-4-oxo-4,5,6,7-tetrahydro-1H-pyrrolo[3,2-c]pyridin-3-yl}amino)benzonitrile] | 4620 | 0.228 nM | 54.9 |  |  |  | 
 | COc1c(Cl)cccc1Nc1c(-c2ccncc2OC[C@@H]2CCCN2CC(F)(F)F)[nH]c2c1C(=O)NCC2 [Example 95, 3-(3-chloro-2-methoxyanilino)-2-(3-{[(2S)-1-(2,2,2-trifluoroethyl)pyrrolidin-2-yl]methoxy}pyridin-4-yl)-1,5,6,7-tetrahydro-4H-pyrrolo[3,2-c]pyridin-4-one] | 2370 | 0.187 nM | 141 |  |  |  | 
 | COc1c(Nc2c(-c3ccncc3OCCN(C)CC(F)(F)F)[nH]c3c2C(=O)NCC3)ccc(F)c1Cl [Example 96, 3-(3-chloro-4-fluoro-2-methoxyanilino)-2-(3-{2-[methyl(2,2,2-trifluoroethyl)amino]ethoxy}pyridin-4-yl)-1,5,6,7-tetrahydro-4H-pyrrolo[3,2-c]pyridin-4-one] | 1470 | 0.305 nM | 49.6 |  |  |  | 
